Measured values taken from ChEMBL document CHEMBL1681663, “Design and synthesis of novel tetrahydronaphthyl azoles and related cyclohexyl azoles as antileishmanial agents” (Bioorg Med Chem Lett, 2011).
≈ marks a conversion by molar mass, not a printed value. Calls of active or inactive are those of the source. No cut-off for these calls is given here.

Key:
[1] = Cytotoxicity against mouse J774A1 cells by MTT assay; type: cell-based, J774.A1
[2] = (§1) Selectivity index, ratio of CC50 for mouse J774A1 cells to IC50 for amastigotes of Leishmania donovani; type: functional, J774.A1
Leishmania donovani [3] = experiment: Antileishmanial activity against promastigotes of Leishmania donovani at 10 ug/ml; type: functional
Leishmania donovani [4] = experiment: Antileishmanial activity against amastigotes of Leishmania donovani; type: functional, organism-based
Leishmania donovani [5] = experiment: Antileishmanial activity against amastigotes of Leishmania donovani at 10 ug/ml; type: functional, organism-based
Leishmania donovani [6] = experiment: Antileishmanial activity against Leishmania donovani infected in Hamster assessed as inhibition of parasites growth at 50 mg/kg, ip for 5 times; type: functional; settings: for inhibition in vivo at 50 mg/kg: route intraperitoneal
J774.A1 = experiment: as §1; type: functional

Q: For `O=[N+]([O-])c1ccc(O[C@H]2CCCC[C@@H]2n2ccnc2)c(F)c1` (racemic), which CC50 [1] is on record?
A: 14.2 µg/mL (≈ 46.7 µM)

Q: And the “Ratio CC50/IC50” value [2]?
A: 6.62

Q: What about the inhibition at 10 µg/mL (Leishmania donovani [3]) of the same molecule?
A: 95.7%

Q: What about the IC50 (Leishmania donovani [4]) of the same molecule?
A: 2.15 µg/mL (≈ 7.04 µM)

Q: Which CC50 [1] does the source give for `O[C@H]1CCc2ccccc2[C@@H]1n1ccnc1` (racemic) here?
A: > 100 µg/mL

Q: And the “Ratio CC50/IC50” value [2]?
A: 2

Q: What about the inhibition at 10 µg/mL (Leishmania donovani [3]) of the same molecule?
A: 60%

Q: And the IC50 (Leishmania donovani [4])?
A: > 50 µg/mL

Q: Which results are given for `O[C@H]1CCc2ccccc2[C@@H]1n1ccnn1` (racemic)?
A: CC50 [1]: 35.6 µg/mL (≈ 165 µM); inhibition (Leishmania donovani [5]): inactive; inhibition at 10 µg/mL (Leishmania donovani [3]): 90.4%

Q: Which CC50 [1] does the source give for `FC(F)(F)c1ccc(O[C@H]2CCc3ccccc3[C@@H]2n2ccnc2)cc1` (racemic) here?
A: 52.5 µg/mL (≈ 146 µM)

Q: What about the inhibition (Leishmania donovani [5]) of the same molecule?
A: inactive

Q: What about the inhibition at 10 µg/mL (Leishmania donovani [3]) of the same molecule?
A: 60%

Q: Which results are given for `O=[N+]([O-])c1ccc(O[C@H]2CCc3ccccc3[C@@H]2n2ccnc2)cc1` (racemic)?
A: CC50 [1]: 21.4 µg/mL (≈ 63.9 µM); Ratio CC50/IC50 [2]: 4.73; inhibition at 10 µg/mL (Leishmania donovani [3]): 94.9%; IC50 (Leishmania donovani [4]): 4.53 µg/mL (≈ 13.5 µM)

Q: For `O=[N+]([O-])c1ccc(O[C@H]2CCc3ccccc3[C@@H]2n2ccnc2)c(C(F)(F)F)c1` (racemic), which CC50 [1] is on record?
A: 10.7 µg/mL (≈ 26.5 µM)

Q: And the “Ratio CC50/IC50” value [2]?
A: 6.73

Q: And the inhibition at 10 µg/mL (Leishmania donovani [3])?
A: 91.2%

Q: What about the IC50 (Leishmania donovani [4]) of the same molecule?
A: 1.59 µg/mL (≈ 3.94 µM)

Q: Which CC50 [1] does the source give for `O=[N+]([O-])c1ccc(O[C@H]2CCc3ccccc3[C@@H]2n2ccnc2)c(F)c1` (racemic) here?
A: 32.1 µg/mL (≈ 90.9 µM)

Q: What about the “Ratio CC50/IC50” value [2] of the same molecule?
A: 4.92

Q: What about the inhibition at 10 µg/mL (Leishmania donovani [3]) of the same molecule?
A: 100%

Q: What about the IC50 (Leishmania donovani [4]) of the same molecule?
A: 6.52 µg/mL (≈ 18.5 µM)

Q: Which results are given for `O=[N+]([O-])c1cc(C(F)(F)F)ccc1O[C@H]1CCc2ccccc2[C@@H]1n1ccnc1` (racemic)?
A: CC50 [1]: 20.1 µg/mL (≈ 49.8 µM); Ratio CC50/IC50 [2]: 5.61; inhibition at 10 µg/mL (Leishmania donovani [3]): 99.6%; IC50 (Leishmania donovani [4]): 3.58 µg/mL (≈ 8.88 µM)

Q: For `Clc1ccc(Cl)c(CO[C@H]2CCc3ccccc3[C@@H]2n2ccnc2)c1` (racemic), which CC50 [1] is on record?
A: 22.3 µg/mL (≈ 59.6 µM)

Q: What about the inhibition in vivo at 50 mg/kg (Leishmania donovani [6]) of the same molecule?
A: 83.3%

Q: What about the “Ratio CC50/IC50” value [2] of the same molecule?
A: 34.78

Q: And the inhibition at 10 µg/mL (Leishmania donovani [3])?
A: 100%

Q: What about the IC50 (Leishmania donovani [4]) of the same molecule?
A: 0.64 µg/mL (≈ 1.71 µM)

Q: With `Clc1cccc(CO[C@H]2CCc3ccccc3[C@@H]2n2ccnc2)c1` (racemic) as the molecule, how does the CC50 [1] read?
A: 15.5 µg/mL (≈ 45.6 µM)

Q: And the inhibition in vivo at 50 mg/kg (Leishmania donovani [6])?
A: 32.1%

Q: And the “Ratio CC50/IC50” value [2]?
A: 11.53

Q: What about the inhibition at 10 µg/mL (Leishmania donovani [3]) of the same molecule?
A: 100%

Q: And the IC50 (Leishmania donovani [4])?
A: 1.34 µg/mL (≈ 3.95 µM)

Q: What does the source list for `O=[N+]([O-])c1ccc(O[C@H]2CCc3ccccc3[C@@H]2n2ccnn2)cc1` (racemic)?
A: CC50 [1]: > 100 µg/mL; inhibition (Leishmania donovani [5]): inactive; inhibition at 10 µg/mL (Leishmania donovani [3]): 99.6%

Q: For `O=[N+]([O-])c1ccc(O[C@H]2CCc3ccccc3[C@@H]2n2ccnn2)c(F)c1` (racemic), which CC50 [1] is on record?
A: > 100 µg/mL

Q: And the inhibition (Leishmania donovani [5])?
A: inactive

Q: And the inhibition at 10 µg/mL (Leishmania donovani [3])?
A: 100%

Q: With `Clc1cccc(CO[C@H]2CCc3ccccc3[C@@H]2n2ccnn2)c1` (racemic) as the molecule, how does the CC50 [1] read?
A: 30.2 µg/mL (≈ 88.9 µM)

Q: And the “Ratio CC50/IC50” value [2]?
A: 10.03

Q: What about the inhibition at 10 µg/mL (Leishmania donovani [3]) of the same molecule?
A: 100%

Q: What about the IC50 (Leishmania donovani [4]) of the same molecule?
A: 3.01 µg/mL (≈ 8.86 µM)

Q: For `FC(F)(F)c1ccc(O[C@H]2CCCC[C@@H]2n2ccnc2)cc1` (racemic), which inhibition (Leishmania donovani [5]) is on record?
A: inactive

Q: And the inhibition at 10 µg/mL (Leishmania donovani [3])?
A: 99.8%

Q: With `O=[N+]([O-])c1ccc(O[C@H]2CCCC[C@@H]2n2ccnc2)cc1` (racemic) as the molecule, how does the CC50 [1] read?
A: 8.27 µg/mL (≈ 28.8 µM)

Q: What about the “Ratio CC50/IC50” value [2] of the same molecule?
A: 3.7

Q: What about the inhibition at 10 µg/mL (Leishmania donovani [3]) of the same molecule?
A: 98.6%

Q: What about the IC50 (Leishmania donovani [4]) of the same molecule?
A: 2.23 µg/mL (≈ 7.76 µM)

Q: With `O=[N+]([O-])c1cc(C(F)(F)F)ccc1O[C@H]1CCCC[C@@H]1n1ccnc1` (racemic) as the molecule, how does the CC50 [1] read?
A: 22.1 µg/mL (≈ 62.3 µM)

Q: What about the “Ratio CC50/IC50” value [2] of the same molecule?
A: 4.36

Q: And the inhibition at 10 µg/mL (Leishmania donovani [3])?
A: 99%

Q: And the IC50 (Leishmania donovani [4])?
A: 5.07 µg/mL (≈ 14.3 µM)

Q: With `Clc1cccc(CO[C@H]2CCCC[C@@H]2n2ccnc2)c1` (racemic) as the molecule, how does the CC50 [1] read?
A: 12.8 µg/mL (≈ 43.9 µM)

Q: And the “Ratio CC50/IC50” value [2]?
A: 9.1

Q: What about the inhibition at 10 µg/mL (Leishmania donovani [3]) of the same molecule?
A: 96.9%

Q: What about the IC50 (Leishmania donovani [4]) of the same molecule?
A: 1.4 µg/mL (≈ 4.83 µM)

Q: For `Clc1ccc(Cl)c(CO[C@H]2CCCC[C@@H]2n2ccnc2)c1` (racemic), which CC50 [1] is on record?
A: 27.2 µg/mL (≈ 83.5 µM)

Q: And the “Ratio CC50/IC50” value [2]?
A: 6.73

Q: What about the inhibition at 10 µg/mL (Leishmania donovani [3]) of the same molecule?
A: 89.6%

Q: What about the IC50 (Leishmania donovani [4]) of the same molecule?
A: 4.03 µg/mL (≈ 12.4 µM)

Q: Which CC50 [1] does the source give for `Clc1ccc(CO[C@H]2CCCC[C@@H]2n2ccnc2)c(Cl)c1` (racemic) here?
A: 3.43 µg/mL (≈ 10.5 µM)

Q: What about the “Ratio CC50/IC50” value [2] of the same molecule?
A: 1.41

Q: And the inhibition at 10 µg/mL (Leishmania donovani [3])?
A: 99.5%

Q: And the IC50 (Leishmania donovani [4])?
A: 2.44 µg/mL (≈ 7.5 µM)

Q: Which results are given for `NC[C@@H]1O[C@H](O[C@H]2[C@@H](O)[C@H](O[C@@H]3[C@@H](O)[C@H](N)C[C@H](N)[C@H]3O[C@H]3O[C@H](CO)[C@@H](O)[C@H](O)[C@H]3N)O[C@@H]2CO)[C@H](N)[C@@H](O)[C@@H]1O` [PAROMOMYCIN]?
A: CC50 [1]: 53.3 µg/mL (≈ 86.6 µM); inhibition in vivo at 50 mg/kg (Leishmania donovani [6]): 46.7%; Ratio CC50/IC50 [2]: 2.15; inhibition at 10 µg/mL (Leishmania donovani [3]): 124%; IC50 (Leishmania donovani [4]): 24.8 µg/mL (≈ 40.3 µM)

Q: What does the source list for sodium stibogluconate?
A: inhibition (Leishmania donovani [6]): 92.2%; Ratio CC50/IC50 (J774.A1): 6.38
